Measured values reported in US20240325298A1, “COMPOSITIONS, METHODS AND SYSTEMS FOR AEROSOL DRUG DELIVERY” (AstraZeneca Pharmaceuticals LP, priority 2021, published 2024).

What was measured:
[1] = Particle size distribution by laser diffraction (optical diameter); format: physicochemical
Source text: When referred to herein, the term “optical diameter” indicates the size of a particle as measured by the Fraunhofer diffraction mode using a laser diffraction particle size analyzer equipped with a dry powder dispenser (e.g., Sympatec GmbH, Clasthal-Zellerfeld, Germany).
Suspending particles were manufactured by spray drying an emulsion of PFOB (perfluorooctyl bromide) and water stabilized by DSPC (1,2-Distearoyl-sn-Glycero-3-Phosphocholine). […] The particle size distribution of the suspending particles was determined by laser diffraction.
Active agent particles formed of budesonide, 16,17-(butylidenebis(oxy))-11,21-dihydroxy-(11-β,16-α)-pregna-1,4-diene-3,20-dione, were formed by micronizing budesonide using a jet mill. The particle size distribution of the budesonide (BD) was determined by laser diffraction.

[2] = NGI aerosol performance stability data after storage of the MDI (valve down, protected); format: physicochemical; conditions: stored valve down and protected at 25° C./60% RH
[3] = budesonide/formoterol co-suspension in HFO-1234ze(E)

| stability of the aPSD [2, 3] | stability of the aPSD ([2]; budesonide/albuterol co-suspension in HFO-1234ze(E)) | Compound | optical diameter that 50% by volume of the particles are smaller than [1] | optical diameter that 90% by volume of the particles are smaller than [1] |
| --- | --- | --- | --- | --- |
|  |  | COc1ccc(CC(C)NCC(O)c2ccc(O)c(NC=O)c2)cc1.O=C(O)/C=C/C(=O)O (racemic) [formoterol fumarate, (±)-2-hydroxy-5-[(1RS)-1-hydroxy-2-[[(1RS)-2-(4-methoxyphenyl)-1-methylethyl]-amino]ethyl]formanilide fumarate] | smaller than 1.6 μm | smaller than 3.9 μm |
| stable for twelve months |  | CCCCCCCCCCCCCCCCCC(=O)OC[C@H](COP(=O)([O-])OCC[N+](C)(C)C)OC(=O)CCCCCCCCCCCCCCCCC [DSPC, 1,2-Distearoyl-sn-Glycero-3-Phosphocholine] |  |  |
| stable for twelve months | stable for twelve months | CCCC1O[C@@H]2C[C@H]3[C@@H]4CCC5=CC(=O)C=C[C@]5(C)[C@H]4[C@@H](O)C[C@]3(C)[C@]2(C(=O)CO)O1 (stereo partly drawn) [budesonide, 16,17-(butylidenebis(oxy))-11,21-dihydroxy-(11-β,16-α)-pregna-1,4-diene-3,20-dione] |  |  |
|  |  | C[N+]1(C)CCC(OC(=O)C(O)(c2ccccc2)C2CCCC2)C1.[Br-] (stereo not drawn) [glycopyrrolate, Pyrrolidinium, 3-((cyclopentylhydroxyphenylacetyl)oxy)-1,1-dimethyl-, bromide] | smaller than 2.1 μm | smaller than 5 μm |
|  |  | albuterol sulfate | smaller than 1.5 μm | smaller than 3.3 μm |
